Experimental data as given in patent US20110207694A1, “MAMMALIAN HYPOTHALAMIC NUTRIENT MODULATION OF GLUCOSE METABOLISM” (priority 2005, published 2011).

Legend:
[1] = tested on: male Sprague-Dawley rats; details: ICV 2 mM glucose, 5 μl/h (Lam et al., 2005b); cited from earlier work
[2] = tested on: male Sprague-Dawley rats; experiment: ICV infusion: plasma triglycerides and metabolites under basal and pancreatic clamp conditions; type: in vivo, rat
Excerpt: Animal preparation. We studied 10-week-old male Sprague-Dawley rats. Rats underwent stereotaxic surgery to indwell single catheters in the third cerebral ventricle {intracerebroventricular (ICV)(Obici et al., 2001) or bilateral catheters into the mediobasal hypothalamus (Lam et al., 2005c). One week later, we placed indwelling catheters in the internal jugular vein and carotid artery for sampling and infusion during the in vivo experiments (Obici et al., 2001). Recovery from surgery was monitored by measuring daily food intake and weight gain for 4-5 days after surgery.
Infusion protocols. The in vivo infusion experiments lasted a total of 360 min, and the experiments were carried out in rats that had their food removed ˜5 h before the experiments. Thus, at the time of the experiment, the rats are in post-absorptive state since their stomach should be completely emptied by 5 h fasting. […] This ICV glucose protocol physiologically elevate hypothalamic glucose concentration by ˜70% as previously described (Lam et al., 2005b) and is similar to that induced by a doubling of the circulating glucose levels (Lam et al., 2005b). During the ICV infusions, we monitored the plasma metabolite levels under pre-infused (0 min), basal (180-240 min) and pancreatic clamp (300-360 min) conditions. […] A basal insulin-pancreatic clamp was performed in the final 2 h (240-360 min) of the study as previously described (Lam et al., 2005b). In brief, a continuous infusion of insulin (1 mU/kg.min) and somatostatin (3 μg/kg.min) was administered, and a variable infusion of a 25% glucose solution was started and periodically adjusted to clamp and maintain the plasma glucose concentration at ˜8 mM. […] To examine the time-dependent effects of ICY glucose on plasma triglycerides, ICY (5 μl/h) 2 mM D-glucose or mannitol was administrated for 210 min and plasma triglyceride levels were monitored at 0, 20, 60, 120, 180, 210 min. […] Plasma triglycerides were monitored under basal, pancreatic clamp and tyloxapol-treated conditions. At the end of the infusion experiments, rats were anesthetized and tissue samples were freeze-clamped in situ with aluminum tongs pre-cooled in liquid nitrogen. All tissue samples were stored at −80° C. for subsequent analysis.
Biochemical analyses. Plasma glucose concentrations were measured by the glucose oxidase method (Glucose Analyzer II, Beckman Instruments, Inc., Fullerton, Calif.). […] FFA concentrations were determined by an enzyme assay in accordance with the manufacturer's specifications (Waco Pure Chemical Industries. Osaka. Japan). Plasma insulin concentrations (with rat and porcine insulin standards) were measured by radioimmunoassay (RIA). Plasma adiponectin concentrations were measured by RIA (Linco Inc., Austin, Tex., USA). Liver triglycerides were measured as described (Muse et al., 2004).
Calculations. Statistical analysis was done by unpaired Student's t test or analysis of variance as appropriate. Data are presented as means±SEM. All values were collapsed into a single value for each animal prior to the calculation of mean. The time period 180-240 min was averaged for the basal and the time period 300-360 min was averaged for the clamp conditions.

[3] = tested on: high fat-fed rats; experiment: Central glucose or lactate in regular chow vs 3-day high fat diet-fed animals: glucose production; type: in vivo, rat; details: central administration
Excerpt: The latter is an excellent model for diet-induced insulin resistance.

[4] = tested on: high fat-fed rats; experiment: ICV glucose or lactate in high fat-fed rats: plasma triglycerides and VLDL secretion; type: in vivo, rat
Experimental: High fat feeding. Male Sprague-Dawley rats were fed a highly palatable high fat diet for three days. These rats developed hyperinsulinemia and hepatic insulin resistance (Morgan et al., 2004). […] In a separate set of studies, lipoprotein secretion studies were performed at the beginning of the ICV infusions.

[5] = tested on: hepatic VLDL secretion; experiment: Lipoprotein (VLDL) secretion studies with tyloxapol; NMR particle size; type: in vivo, rat; details: ICV glucose
Experimental: Lipoproteins secretion and particles concentration and size measurements. Tyloxapol (600 mg/kg; ˜1 min) was intravenously injected to inhibit endogenous lipoprotein lipase. This high dose of tyloxapol ensured complete inhibition of triglyceride clearance during VLDL secretion studies. Plasma samples were taken every 30 min for triglycerides analysis and for lipoprotein profiling. Plasma VLDL particles concentration and size were determined by nuclear magnetic resonance spectroscopy (lipoprofile-II test) at Liposcience as previously described (Otvos et al., 1991; 1992). This NMR lipoprofile-II test is based on the assumption that each plasma lipoprotein particle of a particular size gives its own characteristic lipid NMR signal. The intensity of the signal is also in proportion to the concentration of the particle. The diameter range for large, medium and small VLDL is >60 nm, 35-60 nm, and 27-35 nm, respectively.
Selective hepatic branch vagotomy. The surgeries were performed as described (Lam et al., 2005c).
Treatment with SCD1 ASO. Five and two days before the lipoprotein secretion studies, rats received a single intra-peritoneal injection of either SCD1 or scrambled (SCR) ASO (100 mg/kg of body weight). […] In a separate set of studies, rats received intra-portal injection of either SCD1 or SCR ASO (40 mg/kg of body weight) (Gutierrez-Juarez et al., 2006) three days before the lipoprotein secretion studies.
Portal oleate infusion. Chronic portal catheter was implanted and 7 days were allowed for rat recovery. Oleic acid (45 mM; dissolved in 45% HBP) was infused at a rate of 40 μl/h for 2.5 h (1 h before the 90 min lipoprotein secretion studies). This dose enabled the reconstitution of hepatic oleyl-CoA levels back to normal during portal SCD1 ASO (FIG. 11c) or ICV glucose studies (FIG. 11d).

SMILES: O=C[C@H](O)[C@@H](O)[C@H](O)[C@H](O)CO [glucose, D-glucose]
- rise in hypothalamic glucose levels [1]: ~70%
- decrease in plasma triglyceride levels ([2]; ICV glucose, within 2 h, fraction): ⅓
- maximal hypolipidemic effect (decrease in plasma triglycerides) ([2]; ICV glucose, within 3 h): ~75%
- plasma free fatty acids levels ([2]; ICV infusion): did not modify plasma fatty acids levels
- plasma triglyceride levels ([2]; ICV infusion (glucose 2 mM, L-lactate 5 mM)): markedly decreased the circulating levels of triglycerides
- glucose production ([3]; 3-day high fat diet-fed animals): severely impaired
- glucose production ([3]; regular chow animals): lowered glucose production
- rate of appearance of VLDL-triglycerides in plasma ([4]; HF rats, tyloxapol): failed to decrease the rate of appearance of VLDL-triglycerides in plasma
- circulating levels of triglycerides ([4]; high fat-fed rats): failed to decrease the circulating levels of triglycerides
- hepatic content of triglycerides [5]: increased
- rate of secretion of small (27-35 nm) and medium (35-60 nm) VLDL particles [5]: tended to be higher
- secretion of large triglyceride-rich VLDL particles (diameter >60 nm) [5]: dramatically and selectively blunted the secretion of large triglyceride-rich VLDL particles
- average size of the secreted VLDL particles ([5]; NMR spectroscopy): significant decrease in the average size of the secreted VLDL particles
- rate of secretion of VLDL-triglycerides ([5]; tyloxapol 600 mg/kg): suppressed the rate of secretion of VLDL-triglycerides within 90 minutes
- inhibitory effect on VLDL secretion in rats with resection of the hepatic branch of the vagus ([5]; preserved in sham-operated rats): abolished
